Reference: PubChem BioAssay AID1963866 (Molecular Pharmacology Branch, DTP, NCI, 2024)

Tested on: PDC KRAS tumor spheroids with HUVEC/MSC, viability
Test: Anticancer human tumor 349418-098-R-PDC patient-derived lung adenocarcinoma cell line growth inhibition [KRAS2]
Details: for IC50: curve of first compound; for viability, T/C: stronger effect = lower value
Outline: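 KRAS-mutant tumor cells were grown as spheroids with HUVEC endothelial cells and human MSCs as stroma. Targeted agents were tested alone and with KRAS pathway inhibitors. Doses started at or near clinical Cmax, or 10 microM, descending half-log.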

[1] = second compound 0.1 µM, first compound 0.000316 µM
[2] = second compound 0.1 µM, first compound 0.001 µM
[3] = second compound 0.1 µM, first compound 0.00316 µM
[4] = second compound 0.1 µM, first compound 0.01 µM
[5] = second compound 0.1 µM, first compound 0.0316 µM
[6] = second compound 0.1 µM, first compound 0.1 µM
[7] = second compound 0.316 µM, first compound 0.000316 µM
[8] = second compound 0.316 µM, first compound 0.001 µM
[9] = second compound 0.316 µM, first compound 0.00316 µM
[10] = second compound 0.316 µM, first compound 0.01 µM
[11] = second compound 0.316 µM, first compound 0.0316 µM
[12] = second compound 0.316 µM, first compound 0.1 µM
[13] = second compound 1 µM, first compound 0.000316 µM
[14] = second compound 1 µM, first compound 0.001 µM
[15] = second compound 1 µM, first compound 0.00316 µM
[16] = second compound 1 µM, first compound 0.01 µM
[17] = second compound 1 µM, first compound 0.0316 µM
[18] = second compound 1 µM, first compound 0.1 µM
[19] = second compound 3.16 µM, first compound 0.000316 µM
[20] = second compound 3.16 µM, first compound 0.001 µM
[21] = second compound 3.16 µM, first compound 0.00316 µM
[22] = second compound 3.16 µM, first compound 0.01 µM
[23] = second compound 3.16 µM, first compound 0.0316 µM
[24] = second compound 3.16 µM, first compound 0.1 µM
[25] = second compound 10 µM, first compound 0.000316 µM
[26] = second compound 10 µM, first compound 0.001 µM
[27] = second compound 10 µM, first compound 0.00316 µM
[28] = second compound 10 µM, first compound 0.01 µM
[29] = second compound 10 µM, first compound 0.0316 µM
[30] = second compound 10 µM, first compound 0.1 µM
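Further: spheroids exposed to compounds for seven days before readout.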

Row | Compound | IC50 (second compound 0.1 µM) [µM] | IC50 (second compound 0.316 µM) [µM] | IC50 (second compound 1 µM) [µM] | IC50 (second compound 3.16 µM) [µM] | IC50 (second compound 10 µM) [µM] | viability, T/C [1] [%] | viability, T/C [2] [%] | viability, T/C [3] [%] | viability, T/C [4] [%] | viability, T/C [5] [%] | viability, T/C [6] [%] | viability, T/C [7] [%] | viability, T/C [11] [%] | viability, T/C [12] [%] | viability, T/C [17] [%] | viability, T/C [18] [%] | viability, T/C [23] [%] | viability, T/C [24] [%] | viability, T/C [29] [%] | viability, T/C [30] [%] | also measured
1 | CC(C)n1nc(-c2ccc3oc(N)nc3c2)c2c(N)ncnc21 + CC1OCC2(CCN(c3cnc(Sc4ccnc(N)c4Cl)c(N)n3)CC2)C1N | 0.00104 | 0.000866 | 0.000926 | 0.000929 | 0.00095 | 88.6 | 51.3 | 12.7 | 7.28 | 6.47 | 6.12 | 84.3 | 5.49 | 5.49 | 5.67 | 5.72 | 6.12 | 5.21 | 5.4 | 4.86 | viability, T/C [8]: 45.1%; viability, T/C [9]: 13.2%; viability, T/C [10]: 6.85%; viability, T/C [13]: 87%; viability, T/C [14]: 47.4%; viability, T/C [15]: 15.5%; viability, T/C [16]: 7.37%; viability, T/C [19]: 66.7%; viability, T/C [20]: 48.9%; viability, T/C [21]: 13.8%; viability, T/C [22]: 7.85%; viability, T/C [25]: 64.2%; viability, T/C [26]: 49.4%; viability, T/C [27]: 15%; viability, T/C [28]: 7.11%
2 | CC1(C)CCC(CN2CCN(c3ccc(C(=O)NS(=O)(=O)c4ccc(NCC5CCOCC5)c([N+](=O)[O-])c4)c(Oc4cnc5[nH]ccc5c4)c3)CC2)=C(c2ccc(Cl)cc2)C1 + CC1OCC2(CCN(c3cnc(Sc4ccnc(N)c4Cl)c(N)n3)CC2)C1N | 1.8 | 1.73 | 1.78 | 1.58 | 1.25 | – | – | – | – | 105 | 97.1 | – | 95.4 | 94.4 | 94.9 | 97.9 | 87.4 | 85.5 | 76 | 82.1 | viability, T/C (second compound 0.1 µM, first compound 0.316 µM): 91.4%; viability, T/C (second compound 0.1 µM, first compound 1 µM): 89.1%; viability, T/C (second compound 0.1 µM, first compound 3.16 µM): 12.3%; viability, T/C (second compound 0.1 µM, first compound 10 µM): 3.59%; viability, T/C (second compound 0.316 µM, first compound 0.316 µM): 89.6%; viability, T/C (second compound 0.316 µM, first compound 1 µM): 84.5%; viability, T/C (second compound 0.316 µM, first compound 3.16 µM): 12.2%; viability, T/C (second compound 0.316 µM, first compound 10 µM): 3.15%; viability, T/C (second compound 1 µM, first compound 0.316 µM): 88.2%; viability, T/C (second compound 1 µM, first compound 1 µM): 87.1%; viability, T/C (second compound 1 µM, first compound 3.16 µM): 13.3%; viability, T/C (second compound 1 µM, first compound 10 µM): 3.05%; viability, T/C (second compound 3.16 µM, first compound 0.316 µM): 77.9%; viability, T/C (second compound 3.16 µM, first compound 1 µM): 71.8%; viability, T/C (second compound 3.16 µM, first compound 3.16 µM): 17.7%; viability, T/C (second compound 3.16 µM, first compound 10 µM): 2%; viability, T/C (second compound 10 µM, first compound 0.316 µM): 63.2%; viability, T/C (second compound 10 µM, first compound 1 µM): 60.8%; viability, T/C (second compound 10 µM, first compound 3.16 µM): 15.6%; viability, T/C (second compound 10 µM, first compound 10 µM): 0.69%
3 | Cn1ncnc1[C@H]1c2n[nH]c(=O)c3cc(F)cc(c23)N[C@@H]1c1ccc(F)cc1 + CC1OCC2(CCN(c3cnc(Sc4ccnc(N)c4Cl)c(N)n3)CC2)C1N | > 0.1 | > 0.1 | > 0.1 | > 0.1 | > 0.1 | 105 | 102 | 95.9 | 95.7 | 88.6 | 85.8 | 93.5 | 83.3 | 73.9 | 82.6 | 76 | 73.7 | 74.2 | 62.8 | 61.9 | viability, T/C [8]: 97.2%; viability, T/C [9]: 95.6%; viability, T/C [10]: 87.5%; viability, T/C [13]: 95.8%; viability, T/C [14]: 93%; viability, T/C [15]: 92.2%; viability, T/C [16]: 83.8%; viability, T/C [19]: 90.3%; viability, T/C [20]: 83.1%; viability, T/C [21]: 83.3%; viability, T/C [22]: 79.8%; viability, T/C [25]: 78.9%; viability, T/C [26]: 74.4%; viability, T/C [27]: 76.7%; viability, T/C [28]: 66.7%
